Counter-ions that a name gives are not always drawn.
Experiments:
[1] = target: Rabbit Reticulocyte Lysate; assay: Rabbit Reticulocyte Lysate: inhibition of eukaryotic protein synthesis (luciferase); assay type: biochemical; conditions: 30° C. 90 minutes, read-out: Retic. IC50
Method: Inhibition of eukaryotic protein synthesis was determined using the Rabbit Reticulocyte Lysate System, Nuclease-Treated from Promega (catalog #L-4960) with slight modifications to the manufacturer's protocol. Compounds were serial diluted in 0.5 mL microcentrifuge tubes by mixing and transferring 50 μL from the highest concentration to 50 μL of water, mixing and transferring 50 μL of this 2-fold dilution to 50 μL of water. This mixing and transferring was repeated so that there are a total of 8 tubes with serial dilutions of compound at 10× the desired screening concentration that are ultimately diluted to 1× by the addition of rabbit reticulocyte luciferase synthesis mixture. Serial dilutions of compounds were added ([…]) to wells in a black round bottom 96-well plate. Water (2.5 μL) was used as a “no inhibitor” control in 4 wells/plate. No RNA control reaction mixture ([…]; see below) was used as a control in 4 wells/plate for background luminescence. Rabbit reticulocyte luciferase synthesis mixture (22.5 μL; see below) was added to wells with compounds or water mixture and incubated at 30° C. for 90 minutes. Luciferase assay reagent (25 μL) was added with luminescence measured using a BioTek Synergy HTX plate reader. % Inhibition was determined relative to no inhibitor controls.
• 1,000 μL rabbit reticulocyte lysate • 5.7 μL Luciferase Control RNA (1 μg/μL) • 26 μL complete amino acid mixture • 395 μL water
• 70 μL rabbit reticulocyte lysate • 2 μL complete amino acid mixture • 28 μL water

E. coli S30 extract = assay: E. coli S30 extract: inhibition of bacterial protein synthesis (luciferase); assay type: biochemical; conditions: 37° C. 1 hour
Method: E. coli S30 extract: Inhibition of bacterial protein synthesis was determined using the E. coli S30 Extract System for Circular DNA (Promega catalog #L-2010) and Luciferase Assay Reagent (Promega catalog #E1500) with slight modifications to a published protocol. Fyfe, C., Sutcliffe, J. A. and Grossman, T. H. (2012) “Development and characterization of a Pseudomonas aeruginosa in vitro coupled transcription-translation assay system for evaluation of translation inhibitors” J. Microbiol. Methods 90(3), 256-261.
Compounds were serial diluted in 0.5 mL microcentrifuge tubes by mixing and transferring 50 μL from the highest concentration to 50 μL of water, mixing and transferring 50 μL of this 2-fold dilution to 50 μL of water. This mixing and transferring was repeated so that there are a total of 8 tubes with serial dilutions of compound at 10× the desired screening concentration that are ultimately diluted to 1× by the addition of S30 luciferase synthesis mixture. Serial dilutions of compounds were added (2 μL) to wells in a black round bottom 96-well plate. Water (2 μL) was used as a “no inhibitor” control in 4 wells/plate. No DNA control reaction mixture (20 μL; see below) was used as a control in 4 wells/plate for background luminescence. S30 luciferase synthesis mixture (18 μL; see below) was added to wells with compounds or water mixture and incubated at 37° C. for 1 hour. Reactions were stopped by transferring to 4° C. refrigerator for 5 minutes then 25 μL of luciferase activity mix was added. Luminescence was measured using a BioTek Synergy HTX plate reader. % Inhibition was determined relative to no inhibitor controls.
• 445 μL S30 extract, circular • 712 μL S30 Premix without amino acids • 4.45 μL pBESTluc™ DNA (1 μg/μL) • 78 μL complete amino acid mixture • 267 μL water
• 20 μL S30 extract, circular • 32 μL S30 Premix without amino acids • 7 μL complete amino acid mixture • 21 μL water

**Q.** With CC(C)(N)C(=O)N1CCN(C(=O)Nc2ccn(C3=CCC(CN4C[C@@H]5[C@@H](N)[C@@H]5C4)CC3)c(=O)n2)CC1 (single isomer, unassigned) [Compound 34, 4-(2-Amino-2-methylpropanoyl)-N-(1-(4-(((exo)-6-amino-3-azabicyclo[3.1.0]hexan-3-yl)methyl)cyclohex-1-en-1-yl)-2-oxo-1,2-dihydropyrimidin-4-yl)piperazine-1-carboxamide hydrochloride salt] as the molecule, how does the IC50 [1] read?
**A.** Its IC50 is no less than 1000 nM.

**Q.** What about the IC50 (E. coli S30 extract) of the same molecule?
**A.** The IC50 was less than 500 nM.

**Q.** Which results are given for CC1(N)CCN(CC2CC=C(n3ccc(NC(=O)N4CCN(C(=O)C(C)(C)N)CC4)nc3=O)CC2)CC1 (single isomer, unassigned) [Compound 38, 4-(2-Amino-2-methylpropanoyl)-N-(1-(4-((4-amino-4-methylpiperidin-1-yl)methyl)cyclohex-1-en-1-yl)-2-oxo-1,2-dihydropyrimidin-4-yl)piperazine-1-carboxamide hydrochloride salt]?
**A.** IC50 [1]: ≥ 1000 nM; IC50 (E. coli S30 extract): < 500 nM

**Q.** Which results are given for CC(C)(N)C(=O)N1CCN(C(=O)Nc2ccn(C3=CCC(CN[C@H]4CC[C@H](N)CC4)CC3)c(=O)n2)CC1 (single isomer, unassigned) [Compound 40, trans-4-(2-Amino-2-methylpropanoyl)-N-(1-(4-(((4-aminocyclohexyl)amino)methyl)cyclohex-1-en-1-yl)-2-oxo-1,2-dihydropyrimidin-4-yl)piperazine-1-carboxamide hydrochloride salt]?
**A.** IC50 [1]: ≥ 1000 nM; IC50 (E. coli S30 extract): < 500 nM

**Q.** CC(C)(N)C(=O)N1CCN(C(=O)Nc2ccn(C3=CCC(CN4CCCC(N)CC4)CC3)c(=O)n2)CC1 (single isomer, unassigned) [Compound 42, 4-(2-Amino-2-methylpropanoyl)-N-(1-(4-((4-aminoazepan-1-yl)methyl)cyclohex-1-en-1-yl)-2-oxo-1,2-dihydropyrimidin-4-yl)piperazine-1-carboxamide hydrochloride salt] was tested. Which IC50 [1] did it give?
**A.** The IC50 was no less than 1000 nM.

**Q.** And the IC50 (E. coli S30 extract)?
**A.** Its IC50 is less than 500 nM.

**Q.** Which IC50 [1] does the source give for CC(C)(N)C(=O)N1CCN(C(=O)Nc2ccn(C3CCC(CN4CC(N)C4)CC3)c(=O)n2)CC1 (centres unmarked) [Compound 10, 4-(2-Amino-2-methylpropanoyl)-N-(1-(4-((3-aminoazetidin-1-yl)methyl)cyclohexyl)-2-oxo-1,2-dihydropyrimidin-4-yl)piperazine-1-carboxamide hydrochloride salt] here?
**A.** Its IC50 is no less than 1000 nM.

**Q.** And the IC50 (E. coli S30 extract)?
**A.** Its IC50 is no less than 1000 nM.

**Q.** For CC(C)(N)C(=O)N1CCN(C(=O)Nc2ccn(C3=CCC(CN4CC5CC5(N)C4)CC3)c(=O)n2)CC1 (centres unmarked) [Compound 29, 4-(2-Amino-2-methylpropanoyl)-N-(1-(4-((1-amino-3-azabicyclo [3.1.0]hexan-3-yl)methyl)cyclohex-1-en-1-yl)-2-oxo-1,2-dihydropyrimidin-4-yl)piperazine-1-carboxamide hydrochloride salt], which IC50 (E. coli S30 extract) is on record?
**A.** Its IC50 is 500 to 1000 nM.

Source: US20250084041A1, “ANTIMICROBIAL COMPOUNDS AND METHODS” (Curza Global, LLC, priority 2021, published 2025)
